Where a name gives a salt, the structure may show the parent alone.
Target: PDEIV
Test: Inhibitory activity towards phosphodiesterase type IV isozyme ([3H] cAMP substrate, in the presence of 10 μM cilostazol)
Format: biochemical
Conditions: type IV isozyme from porcine artery, 30° C.

## CCOc1ccc(CC2=NCCc3cc(OCC)c(OCC)cc32)cc1OCC [Compound 6, 1-(3',4'-Diethoxybenzyl)-6,7-diethoxy-3,4-dihydroisoquinolinium-theophylline-7-acetate monohydrate]
pH 7.5, monohydrate
  IC50: 17.2 µM

## CCOc1ccc(CC2=NCCc3cc(OCC)c(OCC)cc32)cc1OCC [Compound 4, 1-(3',4'-Diethoxybenzyl)-6,7-diethoxy-3,4-dihydroisoquinoline hydrochloride]
pH 7.5, hydrochloride
  IC50: 8.1 µM

## CCCCOc1cc(CC2CNC(=O)N2)ccc1OC (stereo not drawn) [Ro20-1724, reference compound]
pH 7.5
  IC50: 26.1 µM

— patent US5556862A, “Pharmaceutical compositions containing isoquinoline derivatives” (Nippon Zoki Pharmaceutical Co., Ltd., priority 1993, dated 1996)
